The results in this text go back to patent publication US20050148495A1, “Methods and materials including for treating acne” (priority 2003, published 2005).

Converted amounts (≈) assume the structure as drawn. Like-named read-outs stand apart in the source and are kept apart here. Non-standard residues stand in square brackets, D forms with d. Residues, ends and D or L forms follow the SMILES beside them. d1Nal = N[C@H](Cc1cccc2ccccc12)C(=O)O

The subject of data set [1] is albino hairless guinea pigs Crl:IAF(HA)-hrBR (Outbred). The data set can be described thus: Photosafety study: primary irritancy, phototoxicity, contact hypersensitivity, photoallergy. Type of data set: in vivo, guinea pig. Particulars: XMP.629 up to 10 mg/mL (1.0%). How it is done: XMP.629 was evaluated for photoallergic potential administered topically to hairless guinea pigs. Primary irritancy, phototoxicity (photoirritancy) and contact hypersensitivity were also evaluated in these studies.
Male CrI:IaF(HA)-hrBR (Outbred) albino hairless guinea pigs were assigned to 7 groups, five guinea pigs per group as outlined below.
XMP.629 was formulated as a gel. The phototoxicity comparator article was 8-methoxypsoralen (8-MOP) in methanol at concentrations of 0.1, 0.3 and 1.0 mg/mL. The contact hypersensitivity and photoallergy comparator article was 3,3′,4′,5′-tetrachlorosalicy/anilide (TCSA) in acetone:corn oil (4:1, v/v) at challenge concentrations of 0 (Vehicle), 10, and 30 mg/mL. The reagent and reagent vehicle were Freund's complete adjuvant (FCA) and sterile water for injection, USP, respectively.
The formulation administration and ultraviolet radiation (UVR) exposure regimens for each group in the study were as follows.
For all phases of the study, test articles, test article vehicles, comparator articles and comparator article vehicles were administered (0.3 ml) using a Hilltop chamber affixed to the guinea pig with dental dam overlaid with a Velcro® wrap for approximately 2.0 hours per administration.
Primary irritancy potential of the test articles and test article vehicles was evaluated in Group 1 guinea pigs. Three chambers (one per formulation dosage) were attached to the dorsal skin along the midline. After the administration period the chamber patches were removed and the application sites were gently wiped.
Cutaneous phototoxicity potential of the test articles and test article vehicles was evaluated in Group 2 guinea pigs. Group 3 guinea pigs were used as a comparator group with elicitation of phototoxicity with 8-MOP. Three chambers (one per formulation dosage) were attached to the dorsal skin along the midline and occluded. After the administration period the chamber patches were removed and the application sites were gently wiped. After wiping, Group 2 and 3 guinea pigs were exposed to solar-simulated UVR for approximately 2.25 hours.
For induction of contact hypersensitivity and photoallergy, a nuchal area of skin approximately 2.5 cm^2 was defined by intradermal injections with a formulation of sterile water and FCA in guinea pigs in Groups 4 through 7 under isoflurane/oxygen anesthesia. This skin area was then tape stripped five times. Formulations were topically administered via chambers as described in the study design table using one chamber attached to the nuchal area. After removal of the chambers the application sites were gently wiped and the nuchal site of Group 6 and 7 guinea pigs was exposed to UVR as above. Appropriate procedures for guinea pigs (with the exception of injection with FCA) were repeated once daily on Days 3, 5, 8, 10 and 12 of the induction phase.
On Day 22 (contact hypersensitivity and photoallergy challenge), formulations were topically applied to appropriate sites on guinea pigs in Groups 4 through 7 as described above. Three chambers (one per formulation dosage) were attached to the dorsal skin along the midline and occluded. The chambers were then removed and the application sites were gently wiped. Guinea pigs in Groups 6 and 7 were then exposed to UVR as above.
Observations for general appearance and clinical signs were made weekly throughout the study. […] Body weights were recorded at initiation of dosing for each phase, weekly thereafter and at sacrifice. […]

A short description of data set [2]: in vivo. Particulars: both, Sprague-Dawley, rat, plasma, 0.2 mg/kg.
Description: Using non-radiolabeled XMP.629, a pharmacokinetic study was conducted in an analogous manner as described above for ^3H-XMP.629. However, in this study, a 0.05 or a 0.2 mg/kg intravenous dose of XMP.629 was administered to 2 males and 2 females rats. Blood samples were collected for 168 hours following dosing and plasma XMP.629 concentrations were measured using liquid chromatography/mass spectrometry (LC/MS).
The nature of data set [3]: physchem. Particulars: aqueous solution.
Description: In additional studies, a variety of formulations of XMP.629 were tested for stability under various temperatures, such as 25° C., 40° C., and 50° C., and at various time points, such as 0.5, 1, and 2 months.
The solubility of XMP.629 acetate in various solvents was also evaluated.
Solubility studies were conducted using a variety of solvent systems and/or skin penetration enhancers.
In data set [4] the test system is Enterococcus. In kind it is cell-based.
Description: Control tubes containing only water or formulation buffer were prepared for each isolate. Initial growth controls were determined by removing 10 μL from the water control tube and diluting it by 100 fold. From this dilution, 10 μL was used for inoculation and for spreading over the surface onto Laked Blood Agar (LBA) (Anaerobe Systems, Morgan Hill, Calif.) plates. The tubes and plates were incubated in an anaerobic atmosphere at 37° C. for 48 h. […] MBC50 and 90 values represent where 50 and 90%, respectively, of the tested strain's MBC values are equal to or less than the indicated concentration.
The test system of data set [5] is E. coli. Particulars: for MBC: agent alone.
Data set [6] relates to CD [Crl:CD (SD)IGS BR] rats. The data set can be described thus: Rat subchronic toxicity test, subcutaneous, 30 days. In kind it is in vivo. How it is done: XMP.629 was evaluated for potential subchronic dose toxicity after at least 30 consecutive days of administration to CD®[CrI: CD® (SD)IGS BR] rats. This study consisted of four main study groups, each containing ten rats/sex/group, and four toxicokinetic (TK) groups each containing six rats/sex/group. Three of the four main study and TK groups received XMP.629 by bolus subcutaneous injection at dose levels of 0.3, 1.0, and 3.0 mg/kg/day and at a dose volume of 3.0 mL/kg. One main study and TK group each served as control groups and received a vehicle (saline/sodium acetate buffer, pH 6.0) at the same dose volume. The TK groups were used for the assessment of plasma XMP.629 concentrations and to evaluate potential effects from repeat-dose administration of XMP.629 on antibody formation in a standardized assay. Blood was collected for plasma analysis on Days 1 and 28. […]
All rats were observed twice daily for morbidity, mortality, injury, and availability of food and water. Body weights were measured pretest and weekly for all rats and observations for clinical signs and measurements for food consumption were conducted weekly during the course of the study on main study rats. […] At the end of the treatment period for the main study rats, various hematology, clinical chemistry, and urinalysis parameters were evaluated. […]

Broadly, the clearance is the rate of elimination divided by the concentration. For orientation: half-life means the time in which the quantity being followed falls by half. One may read the AUC as concentration integrated over time. In general, Vd refers to a proportionality between amount in the body and measured concentration, not a real space. Low values mean little distribution into tissue, high ones wide distribution into tissue. One may read the solubility as the dissolved amount per volume that the medium holds. Lower therefore signals a poorly soluble substance. As a reminder, the MBC is the smallest concentration meeting the test's criterion for killing. Higher therefore signals less potent killing.

Consider `CC(C)C[C@@H](NC(=O)[C@H](N)CCCCN)C(=O)N[C@H](Cc1ccccc1)C(=O)N[C@H](CCCNC(=N)N)C(=O)N[C@H](Cc1cccc2ccccc12)C(=O)N[C@H](CCC(N)=O)C(=O)N[C@H](C)C(=O)N[C@H](CCCCN)C(=O)N[C@H](Cc1cccc2ccccc12)C(N)=O` [XMP.629, NH2-lys-leu-phe-arg-(3-(1-naphthyl)-ala)-gln-ala-lys-(3-(1-naphthyl)-ala)-CONH2] (H-[dK][dL][dF][dR][d1Nal][dQ][dA][dK][d1Nal]-NH2), for which, in data set [1], the contact hypersensitivity result was “did not cause skin changes”. Moreover, the photoallergy entry in data set [1] is recorded as “did not cause skin changes”. Further, the phototoxicity result in data set [1] (single topical administration and UVR) is recorded as “did not cause skin changes”. In addition, the primary irritation result in data set [1] (single topical administration, 0.3 mL/skin site) is “did not cause skin changes”. Besides, the clearance is around 5.33 mL/min/kg in data set [2] (intravenous) and 5.32 mL/min/kg in data set [2] (iv). In addition, the half-life is around 20 min in data set [2] (intravenous, alpha half-life, two compartment model); around 960 min in data set [2] (intravenous, terminal half-life, two compartment model); 26.4 min in data set [2] (iv, t1/2 (average half-life), non-labeled XMP.629, 0.2 mg/kg intravenous, mean); 21.2 min in data set [2] (iv, t1/2 α (α half-life), non-labeled XMP.629, 0.2 mg/kg intravenous, mean); 972 min in data set [2] (iv, t1/2 β (β half-life), non-labeled XMP.629, 0.2 mg/kg intravenous, mean). Also, the AUC in data set [2] (iv) worked out at 744 ng·h/mL. For the same compound, the Vd came out at 0.202 L/kg in data set [2] (iv, Vc (volume of distribution of the central compartment), non-labeled XMP.629, 0.2 mg/kg intravenous, LC/MS, two compartment model, mean) and 2.25 L/kg in data set [2] (iv, Vss (volume of distribution at steady state), non-labeled XMP.629, 0.2 mg/kg intravenous, mean). The compound also returned a solubility in data set [3] of at least 20 mg/mL. The “MIC90, XMP.629 data reported as MBC values” in data set [4] came to 4 µg/mL (≈ 3.12 µM); in data set [4] (in FB (formulation buffer)) it was 0.5 µg/mL (≈ 0.39 µM). Besides, the MBC in data set [5] (E. coli 706U2-1081) was determined as 16 µg/mL (≈ 12.5 µM); in data set [5] (E. coli 4104 LF), 8 µg/mL (≈ 6.23 µM). Besides, the “XMP.629 MBC” value in data set [5] (E. coli 4104 LF, XMP.629 alone) is 16 µg/mL. In addition, the main finding result in data set [6] (0.3, 1.0, and 3.0 mg/kg/day subcutaneous for 30 days) was “injection site lesions”. Also, the “no-observed-effect level (NOEL) for systemic effects” value in data set [6] (subcutaneous, 30 days) is given as “greater than 3.0 mg/kg/day”.
